Experimental data: patent US20060089378A1 (priority 2004, published 2006)
pEC50, pIC50: −log10 of the molar value. Where two headings read alike, the source gives them in different places.

Key:
Cannabinoid CB1 Receptor = molecular target: T1, Cannabinoid CB1 Receptor (Homo sapiens, UniProt P21554); assay: Binding assay for CB1 agonists or inverse agonists (radioligand competition, membranes of transfected SK-N-MC cells)
T1 construct: expressed in transfected cells

Cannabinoid CB2 Receptor = molecular target: T2, Cannabinoid CB2 Receptor (Homo sapiens, UniProt P34972); assay: Binding assay for CB2 agonists or inverse agonists (radioligand competition, membranes of transfected SK-N-MC cells); conditions: read-out: Cannabinoid CB2 Receptor Binding percent inhibition
T2 construct: expressed in transfected cells
T2 sequence (P34972 whole entry): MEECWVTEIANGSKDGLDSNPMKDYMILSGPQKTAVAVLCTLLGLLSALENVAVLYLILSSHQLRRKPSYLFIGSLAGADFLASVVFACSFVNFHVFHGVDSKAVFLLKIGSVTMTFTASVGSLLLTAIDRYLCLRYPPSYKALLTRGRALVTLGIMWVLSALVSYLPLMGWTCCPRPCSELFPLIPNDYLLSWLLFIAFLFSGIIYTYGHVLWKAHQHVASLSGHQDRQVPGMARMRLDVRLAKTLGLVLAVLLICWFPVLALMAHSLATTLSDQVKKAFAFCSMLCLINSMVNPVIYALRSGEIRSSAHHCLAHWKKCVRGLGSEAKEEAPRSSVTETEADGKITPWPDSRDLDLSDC

CB1 receptor (human) = CB1 receptor (human) (Homo sapiens, UniProt P21554); assay: cell-based
Sequence of CB1 receptor (human) (P21554 whole entry): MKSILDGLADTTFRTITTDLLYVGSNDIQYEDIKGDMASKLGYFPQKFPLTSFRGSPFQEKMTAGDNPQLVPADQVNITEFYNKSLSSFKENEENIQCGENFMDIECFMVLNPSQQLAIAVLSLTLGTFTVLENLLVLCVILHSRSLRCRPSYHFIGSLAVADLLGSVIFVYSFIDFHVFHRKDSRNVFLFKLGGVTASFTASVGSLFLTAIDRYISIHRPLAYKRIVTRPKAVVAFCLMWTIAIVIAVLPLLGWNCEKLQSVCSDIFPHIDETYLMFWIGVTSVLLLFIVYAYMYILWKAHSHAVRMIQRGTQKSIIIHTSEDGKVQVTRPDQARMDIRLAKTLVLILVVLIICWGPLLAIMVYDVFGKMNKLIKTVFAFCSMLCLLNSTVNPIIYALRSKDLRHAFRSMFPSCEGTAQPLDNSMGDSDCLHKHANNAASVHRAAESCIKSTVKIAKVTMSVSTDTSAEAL

T1 sequence (P21554 whole entry): as above

Structure (SMILES): COc1ccc(/C=C2\CN(S(C)(=O)=O)Cc3c(C(=O)NC(C)c4ccccn4)nn(-c4ccc(Cl)cc4Cl)c32)cc1 (stereo not drawn) [Cpd 63, (7E)-1-(2,4-dichloro-phenyl)-5-methanesulfonyl-7-(4-methoxy-benzylidene)-4,5,6,7-tetrahydro-1H-pyrazolo[4,3-c]pyridine-3-carboxylic acid (1-pyridin-2-yl-ethyl)-amide]
- pIC50 (Cannabinoid CB1 Receptor): 8.22
- inhibition at 0.2 µM (Cannabinoid CB2 Receptor): 48%
- pEC50 (CB1 receptor (human)): 8.52

Structure (SMILES): COc1ccc(/C=C2\CN(S(=O)(=O)N(C)C)Cc3c(C(=O)NC(C)c4ccccn4)nn(-c4ccc(Cl)cc4Cl)c32)cc1 (stereo not drawn) [Cpd 64, (7E)-1-(2,4-dichloro-phenyl)-5-dimethylsulfamoyl-7-(4-methoxy-benzylidene)-4,5,6,7-tetrahydro-1H-pyrazolo[4,3-c]pyridine-3-carboxylic acid (1-pyridin-2-yl-ethyl)-amide]
- pIC50 (Cannabinoid CB1 Receptor): 8.22
- inhibition at 0.2 µM (Cannabinoid CB2 Receptor): 62%
- pEC50 (CB1 receptor (human)): 9.00

Structure (SMILES): CCOC(=O)CN1C/C(=C\c2ccc(OC)cc2)c2c(c(C(=O)NC(C)c3ccccn3)nn2-c2ccc(Cl)cc2Cl)C1 (stereo not drawn) [Cpd 65, (7E)-[1-(2,4-dichloro-phenyl)-7-(4-methoxy-benzylidene)-3-(1-pyridin-2-yl-ethylcarbamoyl)-1,4,6,7-tetrahydro-pyrazolo[4,3-c]pyridin-5-yl]-acetic acid ethyl ester]
- pIC50 (Cannabinoid CB1 Receptor): 8.00
- inhibition at 0.2 µM (Cannabinoid CB2 Receptor): 39%
- pEC50 (CB1 receptor (human)): 8.05

Structure (SMILES): C[C@@H](NC(=O)c1nn(-c2ccc(Cl)cc2)c2c1CNC/C2=C\c1ccc(F)cc1)c1ccccc1 [Cpd 66, (7E)-1-(4-chloro-phenyl)-7-(4-fluoro-benzylidene)-4,5,6,7-tetrahydro-1H-pyrazolo[4,3-c]pyridine-3-carboxylic acid [(1R)-1-phenyl-ethyl]-amide]
- pIC50 (Cannabinoid CB1 Receptor): 7.70
- inhibition at 0.2 µM (Cannabinoid CB2 Receptor; test concentration of 0.2 μM, compounds without an IC50 binding value): 5%
- pEC50 (CB1 receptor (human)): 8.00

Structure (SMILES): COC(=O)N1C/C(=C\c2ccc(F)cc2)c2c(c(C(=O)N[C@H](C)c3ccccc3)nn2-c2ccc(Cl)cc2)C1 [Cpd 67, (7E)-1-(4-chloro-phenyl)-7-(4-fluoro-benzylidene)-3-[(1R)-1-phenyl-ethylcarbamoyl]-1,4,6,7-tetrahydro-pyrazolo[4,3-c]pyridine-5-carboxylic acid methyl ester]
- pIC50 (Cannabinoid CB1 Receptor): 8.30
- inhibition at 0.2 µM (Cannabinoid CB2 Receptor): 19%
- pEC50 (CB1 receptor (human)): 9.00

Structure (SMILES): CC(=O)N1C/C(=C\c2ccc(F)cc2)c2c(c(C(=O)N[C@H](C)c3ccccc3)nn2-c2ccc(Cl)cc2)C1 [Cpd 68, (7E)-5-acetyl-1-(4-chloro-phenyl)-7-(4-fluoro-benzylidene)-4,5,6,7-tetrahydro-1H-pyrazolo[4,3-c]pyridine-3-carboxylic acid [(1R)-1-phenyl-ethyl]-amide]
- pIC50 (Cannabinoid CB1 Receptor): 7.70
- inhibition at 0.2 µM (Cannabinoid CB2 Receptor): 11%
- pEC50 (CB1 receptor (human)): 8.52

Structure (SMILES): CCNC(=O)N1C/C(=C\c2ccc(F)cc2)c2c(c(C(=O)N[C@H](C)c3ccccc3)nn2-c2ccc(Cl)cc2)C1 [Cpd 69, (7E)-1-(4-chloro-phenyl)-7-(4-fluoro-benzylidene)-1,4,6,7-tetrahydro-pyrazolo[4,3-c]pyridine-3,5-dicarboxylic acid 5-ethylamide 3-{[(1R)-1-phenyl-ethyl]-amide}]
- pIC50 (Cannabinoid CB1 Receptor): 7.52
- inhibition at 0.2 µM (Cannabinoid CB2 Receptor): 0%
- pEC50 (CB1 receptor (human)): 8.30

Structure (SMILES): C[C@@H](NC(=O)c1nn(-c2ccc(Cl)cc2)c2c1CN(S(=O)(=O)N(C)C)C/C2=C\c1ccc(F)cc1)c1ccccc1 [Cpd 70, (7E)-1-(4-chloro-phenyl)-5-dimethylsulfamoyl-7-(4-fluoro-benzylidene)-4,5,6,7-tetrahydro-1H-pyrazolo[4,3-c]pyridine-3-carboxylic acid [(1R)-1-phenyl-ethyl]-amide]
- pIC50 (Cannabinoid CB1 Receptor): 8.05
- inhibition at 0.2 µM (Cannabinoid CB2 Receptor): 13%
- pEC50 (CB1 receptor (human)): 9.00

Structure (SMILES): C[C@@H](NC(=O)c1nn(-c2ccc(Cl)cc2)c2c1CN(S(C)(=O)=O)C/C2=C\c1ccc(F)cc1)c1ccccc1 [Cpd 71, (7E)-1-(4-chloro-phenyl)-7-(4-fluoro-benzylidene)-5-methanesulfonyl-4,5,6,7-tetrahydro-1H-pyrazolo[4,3-c]pyridine-3-carboxylic acid [(1R)-1-phenyl-ethyl]-amide]
- pIC50 (Cannabinoid CB1 Receptor): 8.40
- inhibition at 0.2 µM (Cannabinoid CB2 Receptor): 3%
- pEC50 (CB1 receptor (human)): 9.00

Structure (SMILES): CCOC(=O)CN1C/C(=C\c2ccc(F)cc2)c2c(c(C(=O)N[C@H](C)c3ccccc3)nn2-c2ccc(Cl)cc2)C1 [Cpd 72, (7E)-[1-(4-chloro-phenyl)-7-(4-fluoro-benzylidene)-3-[(1R)-1-phenyl-ethylcarbamoyl]-1,4,6,7-tetrahydro-pyrazolo[4,3-c]pyridin-5-yl]-acetic acid ethyl ester]
- pIC50 (Cannabinoid CB1 Receptor): 8.00
- inhibition at 0.2 µM (Cannabinoid CB2 Receptor): 17%
- pEC50 (CB1 receptor (human)): 8.30

Structure (SMILES): CC(NC(=O)c1nn(-c2ccc(Cl)cc2)c2c1CNC/C2=C\c1ccc(F)cc1)c1ccccn1 (stereo not drawn) [Cpd 75, (7E)-1-(4-chloro-phenyl)-7-(4-fluoro-benzylidene)-4,5,6,7-tetrahydro-1H-pyrazolo[4,3-c]pyridine-3-carboxylic acid (1-pyridin-2-yl-ethyl)-amide]
- pIC50 (Cannabinoid CB1 Receptor): 6.70
- inhibition at 0.2 µM (Cannabinoid CB2 Receptor): 0%
- pEC50 (CB1 receptor (human)): 7.40

Structure (SMILES): O=C(NN1CCCCC1)c1nn(-c2ccc(Cl)cc2)c2c1CNC/C2=C\c1ccc(F)cc1 [Cpd 76, (7E)-1-(4-chloro-phenyl)-7-(4-fluoro-benzylidene)-4,5,6,7-tetrahydro-1H-pyrazolo[4,3-c]pyridine-3-carboxylic acid piperidin-1-ylamide]
- inhibition at 0.2 µM (Cannabinoid CB1 Receptor; read-out: Cannabinoid CB1 Receptor Binding percent inhibition): 48%
- inhibition at 0.2 µM (Cannabinoid CB2 Receptor): 0%
- pEC50 (CB1 receptor (human)): 7.52

Structure (SMILES): CCNC(=O)N1C/C(=C\c2ccc(F)cc2)c2c(c(C(=O)NC(C)c3ccccn3)nn2-c2ccc(Cl)cc2)C1 (stereo not drawn) [Cpd 77, (7E)-1-(4-chloro-phenyl)-7-(4-fluoro-benzylidene)-1,4,6,7-tetrahydro-pyrazolo[4,3-c]pyridine-3,5-dicarboxylic acid 5-ethylamide 3-[(1-pyridin-2-yl-ethyl)-amide]]
- pIC50 (Cannabinoid CB1 Receptor): 7.10
- inhibition at 0.2 µM (Cannabinoid CB2 Receptor): 0%
- pEC50 (CB1 receptor (human)): 8.00

Structure (SMILES): COC(=O)N1C/C(=C\c2ccc(F)cc2)c2c(c(C(=O)NC(C)c3ccccn3)nn2-c2ccc(Cl)cc2)C1 (stereo not drawn) [Cpd 79, (7E)-1-(4-chloro-phenyl)-7-(4-fluoro-benzylidene)-3-(1-pyridin-2-yl-ethylcarbamoyl)-1,4,6,7-tetrahydro-pyrazolo[4,3-c]pyridine-5-carboxylic acid methyl ester]
- pIC50 (Cannabinoid CB1 Receptor): 8.00
- inhibition at 0.2 µM (Cannabinoid CB2 Receptor): 13%
- pEC50 (CB1 receptor (human)): 8.52

Structure (SMILES): CC(=O)N1C/C(=C\c2ccc(F)cc2)c2c(c(C(=O)NC(C)c3ccccn3)nn2-c2ccc(Cl)cc2)C1 (stereo not drawn) [Cpd 80, (7E)-5-acetyl-1-(4-chloro-phenyl)-7-(4-fluoro-benzylidene)-4,5,6,7-tetrahydro-1H-pyrazolo[4,3-c]pyridine-3-carboxylic acid (1-pyridin-2-yl-ethyl)-amide]
- pIC50 (Cannabinoid CB1 Receptor): 7.00
- inhibition at 0.2 µM (Cannabinoid CB2 Receptor): 0%
- pEC50 (CB1 receptor (human)): 8.05

Structure (SMILES): COC(=O)N1C/C(=C\c2ccc(F)cc2)c2c(c(C(=O)NN3CC4CCCC4C3)nn2-c2ccc(Cl)cc2)C1 (stereo not drawn) [Cpd 87, (7E)-1-(4-chloro-phenyl)-7-(4-fluoro-benzylidene)-3-(hexahydro-cyclopenta[c]pyrrol-2-ylcarbamoyl)-1,4,6,7-tetrahydro-pyrazolo[4,3-c]pyridine-5-carboxylic acid methyl ester]
- pIC50 (Cannabinoid CB1 Receptor): 7.30
- inhibition at 0.2 µM (Cannabinoid CB2 Receptor): 16%
- pEC50 (CB1 receptor (human)): 9.00

Structure (SMILES): COc1ccc(/C=C2\CN(C(=O)OC(C)(C)C)Cc3c(C(=O)N[C@H](C)c4ccccn4)nn(-c4ccc(Cl)cc4Cl)c32)cc1 [Cpd 89, (7E)-1-(2,4-dichloro-phenyl)-7-(4-methoxy-benzylidene)-3-[(1R)-1-pyridin-2-yl-ethylcarbamoyl]-1,4,6,7-tetrahydro-pyrazolo[4,3-c]pyridine-5-carboxylic acid tert-butyl ester]
- pIC50 (Cannabinoid CB1 Receptor): 7.70
- inhibition at 0.2 µM (Cannabinoid CB2 Receptor): 27%
- pEC50 (CB1 receptor (human)): 8.30

Structure (SMILES): O=C(NN1CC2CCCC2C1)c1nn(-c2ccc(Cl)cc2Cl)c2c1CNC/C2=C\c1ccc(F)cc1 (stereo not drawn) [Cpd 90, (7E)-1-(2,4-dichloro-phenyl)-7-(4-fluoro-benzylidene)-4,5,6,7-tetrahydro-1H-pyrazolo[4,3-c]pyridine-3-carboxylic acid (hexahydro-cyclopenta[c]pyrrol-2-yl)-amide]
- pIC50 (Cannabinoid CB1 Receptor): 7.52
- inhibition at 0.2 µM (Cannabinoid CB2 Receptor): 15%
- pEC50 (CB1 receptor (human)): 8.10

Structure (SMILES): CC(=O)N1C/C(=C\c2ccc(F)cc2)c2c(c(C(=O)NN3CC4CCCC4C3)nn2-c2ccc(Cl)cc2Cl)C1 (stereo not drawn) [Cpd 91, (7E)-5-acetyl-1-(2,4-dichloro-phenyl)-7-(4-fluoro-benzylidene)-4,5,6,7-tetrahydro-1H-pyrazolo[4,3-c]pyridine-3-carboxylic acid (hexahydro-cyclopenta[c]pyrrol-2-yl)-amide]
- pIC50 (Cannabinoid CB1 Receptor): 7.30
- inhibition at 0.2 µM (Cannabinoid CB2 Receptor): 14%
- pEC50 (CB1 receptor (human)): 8.52

Structure (SMILES): COC(=O)N1C/C(=C\c2ccc(F)cc2)c2c(c(C(=O)NN3CC4CCCC4C3)nn2-c2ccc(Cl)cc2Cl)C1 (stereo not drawn) [Cpd 92, (7E)-1-(2,4-dichloro-phenyl)-7-(4-fluoro-benzylidene)-3-(hexahydro-cyclopenta[c]pyrrol-2-ylcarbamoyl)-1,4,6,7-tetrahydro-pyrazolo[4,3-c]pyridinc-5-carboxylic acid methyl ester]
- pIC50 (Cannabinoid CB1 Receptor): 7.70
- inhibition at 0.2 µM (Cannabinoid CB2 Receptor): 4%
- pEC50 (CB1 receptor (human)): 8.70

Structure (SMILES): COc1ccc(/C=C2\CNCc3c(C(=O)N[C@H](C)c4ccccn4)nn(-c4ccc(Cl)cc4Cl)c32)cc1 [Cpd 93, (7E)-1-(2,4-dichloro-phenyl)-7-(4-methoxy-benzylidene)-4,5,6,7-tetrahydro-1H-pyrazolo[4,3-c]pyridine-3-carboxylic acid [(1R)-1-pyridin-2-yl-ethyl]-amide]
- pIC50 (Cannabinoid CB1 Receptor): 7.52
- inhibition at 0.2 µM (Cannabinoid CB2 Receptor): 7%
- pEC50 (CB1 receptor (human)): 8.10

Structure (SMILES): COc1ccc(/C=C2\CNCc3c(C(=O)NN4CC5CCCC5C4)nn(-c4ccc(Cl)cc4Cl)c32)cc1 (stereo not drawn) [Cpd 95, (7E)-1-(2,4-dichloro-phenyl)-7-(4-methoxy-benzylidene)-4,5,6,7-tetrahydro-1H-pyrazolo[4,3-c]pyridine-3-carboxylic acid (hexahydro-cyclopenta[c]pyrrol-2-yl)-amide]
- pIC50 (Cannabinoid CB1 Receptor): 7.10
- inhibition at 0.2 µM (Cannabinoid CB2 Receptor): 20%
- pEC50 (CB1 receptor (human)): 8.05
